Experiment [1] concerns cynomolgus monkey corneal endothelial cells. Kind of experiment: BrdU ELISA, concentration series, cynomolgus monkey corneal endothelial cells (Example 8). In kind it is cell-based. Particulars: concentration series per agent between 0.1 μM and 100 μM; 5000 cells/well; * p<0.01. Here is the method:
The medium was removed from a culture dish culturing cynomolgus monkey corneal endothelial cells ([…] phosphate buffer solution (Nacalai Tesque, 14249-95) heated to 37° C. in advance was added thereto and the cells were washed. This operation was repeated twice. After removing the phosphate buffer solution, 0.05% Trypsin-EDTA (Nacalai Tesque, 35554-64) was added and the cells were incubated for 10 minutes at 37° C. (5% CO2). The cells were then suspended in DMEM (Nacalai Tesque, 08456-94)+10% FBS (Biowest, S1820-500)+1% penicillin/streptomycin (P/S, Nacalai Tesque, 26252-94) and centrifuged for 3 minutes at 1200 rpm to collect the cells. A 96-well plate was treated with an FNC coating mix (50 ml ([…], catalog number: 0407). The monkey corneal endothelial cells (lot: 20120404-3L-P8) were seeded in the coated 96-well plate at a ratio of 5000 cells/well. The cells were cultured for 30 hours at 37° C. (5% CO2). After 30 hours, the medium was removed and changed to a serum free medium: DMEM+1% P/S to culture the cells for 18 hours. […] DMSO was added to the control. After 24 hours, a BrdU labeling reagent (Amersham Cell Proliferation Biotrak ELISA System, Version 2, GE Healthcare, catalog number: RPN250) was further added at a ratio of 1:1000 to the DMEM+10% FBS+1% P/S medium. […] DMSO was added to the control. After 24 hours, BrdU ELISA was carried out with Amersham Cell Proliferation Biotrak ELISA System, Version 2 (GE Healthcare, catalog number: RPN250). The absorbance at 450 nm was measured. *P<0.01, Dunnet's test, n=5. As in (1), the medium was removed from a culture dish culturing cynomolgus monkey corneal endothelial cells. A phosphate buffer solution heated to 37° C. in advance was added thereto and the cells were washed. This operation was repeated twice. After removing the phosphate buffer solution, 0.05% Trypsin-EDTA (Nacalai Tesque, 35554-64) was added and the cells were incubated for 10 minutes at 37° C. (5% CO2). The cells were then suspended in DMEM (Nacalai Tesque, 08456-94)+10% FBS (Biowest, S1820-500)+1% penicillin/streptomycin (Nacalai Tesque, catalog number: 26252-94) and centrifuged for 3 minutes at 1200 rpm to collect the cells. A 96-well plate was treated with an FNC coating mix (50 ml ([…], catalog number: 0407). Monkey corneal endothelial cells (lot: 20120404-3L-P8) were seeded in the coated 96-well plate at a ratio of 5000 cells/well. The cells were cultured for 30 hours at 37° C. (5% CO2). After 30 hours, the medium was removed and changed to a serum free medium: DMEM+1% P/S to culture the cells for 18 hours. After 18 hours, Semapimod HCl (MedKoo Biosciences, catalog number: 202590, lot number: SMC20120918) was added to the DMEM+10% FBS+1% P/S medium such that the final concentration dissolved with DMSO was 0.1, 0.3, 1, 3, or 10 μmol/l, and the cells were cultured for 24 hours. DMSO was added to the control. After 24 hours, a BrdU labeling reagent (Amersham Cell Proliferation Biotrak ELISA System, Version 2, GE Healthcare, catalog number: RPN250) was further added at a ratio of 1:1000 to the DMEM+10% FBS+1% P/S medium. Semapimod HCl was added such that the final concentration was 0.1, 0.3, 1, 3, or 10 μmol/l and the cells were cultured for 24 hours. DMSO was added to the control. After 24 hours, BrdU ELISA was carried out with Amersham Cell Proliferation Biotrak ELISA System, Version 2 (GE Healthcare, catalog number: RPN250). The absorbance at 450 nm was measured. […]
On the technique in general: Incorporation of labelled thymidine or its analogues reports DNA synthesis.

Experiment [2] has the same test system. Briefly: BrdU ELISA, one concentration per agent, monkey corneal endothelial cells (Example 9). In kind it is cell-based. Conditions: 10 μM SB203580, 1 μM Semapimod, 3 μM BIRB796, 1 μM PH-797804, 3 μM VX-702, 3 μM LY2228820, 3 μM TAK-715, * p<0.01. Here is the method: The medium was removed from a culture dish culturing cynomolgus monkey corneal endothelial cells. PBS (-) heated to 37° C. in advance was added thereto and the cells were washed. This operation was repeated twice. After removing the PBS (-), 0.05% Trypsin-EDTA (NacalaiTesque, 35554-64) was added and the cells were incubated for 10 minutes at 37° C. (5% CO2). The cells were then suspended in DMEM (Nacalai Tesque, 08456-94)+10% FBS (Biowest, S1820-500)+1% penicillin/streptomycin (Nacalai Tesque, catalog number: 26252-94) and centrifuged for 3 minutes at 1200 rpm to collect the cells. A 96-well plate was treated with an FNC coating mix (50 ml ([…], catalog number: 0407). The monkey corneal endothelial cells (lot: 20120404-3L-P9) were seeded in the coated 96-well plate at a ratio of 3000 cells/well. The cells were cultured for 30 hours at 37° C. (5% CO2). After 30 hours, the medium was removed and changed to a serum free medium: DMEM+1% P/S to culture the cells for 18 hours. […] SMC20120918), BIRB796 (Doramapimod) (Selleck Chemicals, catalog number: S1574, lot number: S157402), PH-797804 (Selleck Chemicals, catalog number: S2726, lot number: 01), VX-702 (Selleck Chemicals, catalog number: S6005, lot number: 02), LY2228820 (Selleck Chemicals, catalog number: S1494, lot number: 01), and TAK-715 (Selleck Chemical, catalog number: […] DMSO was added to the control. After 24 hours, a BrdU labeling reagent (Amersham Cell Proliferation Biotrak ELISA System, Version 2, GE Healthcare, catalog number: RPN250) was further added at a ratio of 1:1000 to the DMEM+10% FBS+1% P/S medium. […] DMSO was added to the control. After 24 hours, BrdU ELISA was carried out with Amersham Cell Proliferation Biotrak ELISA System, Version 2 (GE Healthcare, catalog number: RPN250). The absorbance at 450 nm was measured.

Structures are written as SMILES.

Take `Cc1ccc(-n2nc(C(C)(C)C)cc2NC(=O)Nc2ccc(OCCN3CCOCC3)c3ccccc23)cc1` [BIRB796, N-[3-tert-butyl-1-(4-methylphenyl)pyrazole-5-yl]-N′-[4-(2-morpholinoethoxy)-1-naphthyl]urea]: the “BrdU uptake as a percentage with respect to the control (proliferation)” value (from here on “BrdU uptake as a percentage”) in experiment [1] and in experiment [2] was “promotes proliferation” in each case.

On to `CC(C)(C)Cn1c(N)nc2ccc(-c3nc(C(C)(C)C)[nH]c3-c3ccc(F)cc3)nc21` [LY2228820, 5-(2-(tert-butyl)-5-(4-fluorophenyl)-1H-imidazole-4-yl)-3-neopentyl-3H-imidazo[4,5-b]pyridine-2-amine], for which the “BrdU uptake as a percentage” value in experiment [1] and in experiment [2] was “promotes proliferation” each time.

Take `CNC(=O)c1ccc(C)c(-n2c(C)cc(OCc3ccc(F)cc3F)c(Br)c2=O)c1` [PH-797804, 3-(3-bromo-4-((2,4-difluorobenzyl)oxy)-6-methyl-2-oxopyridine-1(2H)-yl)-N,4-dimethylbenzamide]: the “BrdU uptake as a percentage” value in experiment [1] and in experiment [2] was “promotes proliferation” in each case.

As for `C[S+]([O-])c1ccc(-c2nc(-c3ccncc3)c(-c3ccc(F)cc3)[nH]2)cc1` (stereo not shown) [SB203580, 4-(4-fluorophenyl)-2-(4-methylsulfinylphenyl)-5-(4-pyridyl)-1H-imidazole], the “BrdU uptake as a percentage” value in experiment [1] and in experiment [2] was “promotes proliferation” throughout.

Consider `CCc1nc(-c2cccc(C)c2)c(-c2ccnc(NC(=O)c3ccccc3)c2)s1` [TAK-715, 2-benzamide-4-[2-ethyl-4-(3-methylphenyl)thiazole-5-yl]pyridine], for which the “BrdU uptake as a percentage” value in experiment [1] and in experiment [2] was “promotes proliferation” throughout.
